For orientation: IC50 means the point on the concentration scale where inhibition reaches its midpoint.

Each structure is given as a SMILES string.

We go through 1 compound from patent publication US20170014375A1, “PHARMACEUTICAL COMPOSITION COMPRISING EFFECTIVE DOSE OF POMIFERIN FOR TREATING CANCERS” (Macau University of Science and Technology, priority 2015, published 2017).

Assay [1] relates to HCT-116 p53−/− isogenic colon cancer cells. Put plainly: MTT cytotoxicity assay, HCT116 p53−/−. In kind it is cell-based. The following applies: Homo sapiens, HCT-116, 72 h, HCT116 p53−/− (p53-deficient), 3 days, read-out: Means of IC50. The procedure:
(§1) The test compound of pomiferin is dissolved in DMSO at a final concentration of 100 mmol/L and stored at −20° C. Cytotoxicity is assessed using the 3-(4,5-dimethylthiazol-2-yl)-2,5-diphenyltetrazolium bromide assay as previously described^29. 4000 of drug-resistant HCT-116 p53+/+, HCT-116 p53−/− and HCT-116 p53−/− isogenic colon cancer cells are seeded on 96-well plates per well. After overnight pre-incubation, the cells are exposed to different concentrations of pomiferin (namely 100, 50, 25, 12.5, 6.25, 3.125, 1.5625, 0.78, 0.39, 0.195, 0.079, 0.039 mol/L) for 3 days. Subsequently, 10 μL of MTT reagents is added to each well and incubated at 37° C. for 4 hours, followed by the addition of 100 μL solubilization buffer (10% SDS in 0.01 mol/L HCl) and overnight incubation. Absorbance at 585 nm is determined from each well on the following day. The percentage of cell viability is calculated using the following formula: Cell viability (%)=Cells numbertreated/Cells numberDMSO control×100. Data is obtained from three independent experiments.
(Tetrazolium assays rely on reduction of a dye to a coloured formazan, in cell work by metabolically active cells.)

Assay [2] concerns HCT-116 p53+/+ isogenic colon cancer cells. Nature of the assay: MTT cytotoxicity assay, HCT116 p53+/+. The format is cell-based. The following applies: Homo sapiens, HCT-116, 72 h, HCT116 p53+/+ (wild-type), 3 days, read-out: Means of IC50. The procedure:
as §1

Assay [3] deals with panel of human and mouse cancer cells. Put plainly: MTT cytotoxicity assay, panel of human and mouse cancer cells. The format is cell-based. Particulars: 72 hours, read-out: mean IC50 value range over the panel. The procedure:
(§2) Pomiferin is dissolved in DMSO at a final concentration of 100 mmol/L and stored at −20° C. Cytotoxicity is assessed using the 3-(4,5-dimethylthiazol-2-yl)-2,5-diphenyltetrazolium bromide assay. 4000-8000 HeLa (human cervical cancer), MCF-7 (human breast cancer), HepG2 and Hep3B (human liver cancer), H1299 and A549 (human lung cancer), LNCap (human prostate cancer) and LLC-1 (mouse Lewis lung carcinoma) cells are seeded on 96-well plates per well. After overnight pre-incubation, the cells are exposed to different concentrations of pomiferin ([…]) for 3 days. Subsequently, 10 μL of MTT reagents is added to each well and incubated at 37° C. for 4 hours followed by the addition of 100 μL solubilization buffer (10% SDS in 0.01 mol/L HCl) and overnight incubation. Absorbance at 585 nm is determined from each well the next day. The percentage of cell viability is calculated using the following formula: Cell viability (%)=Cells number treated/Cells number DMSO control×100. Data are obtained from three independent experiments.

The test system of assay [4] is caspase-3 deficient (caspase 3KO) mouse embryonic fibroblasts. Nature of the assay: MTT cytotoxicity assay, caspase 3KO MEFs. The format is cell-based. The following applies: Fibroblast, 72 h, 3 days, read-out: Means of IC50. The procedure: as §1, with “2500” for “4000”, “caspase wild-type (caspase WT), caspase-3 deficient (caspase 3KO), caspase-7 deficient (caspase 7KO), caspase-3/-7 deficient (caspase 3/7 DKO), caspase-8 deficient (caspase 8KO), Bax-Bak wild-type (Bak-Bak WT)” for “drug-resistant HCT-116 p53+/+, HCT-116 p53−/−”, “Bax-Bak double knock out (Bak-Bak DKO) mouse embryonic fibroblasts (MEFs)” for “HCT-116 p53−/− isogenic colon cancer cells”, “μmol/L)” for “mol/L)”

A further assay concerns HeLa cancer cells. Nature of the assay: Western blot of autophagic marker LC3-II conversion. In kind it is cell-based, human. Particulars: 0-15 μM, FIG. 1A. The procedure:
After pomiferin treatments in the presence or absence of lysosomal inhibitor 50 nM of Bafilomycin A1 or autophagy inhibitor 5 mM 3-MA, HeLa cancer cells are harvested and lysed in RIPA buffer (Cell Signaling Technologies Inc., Beverly, Mass.). The cell lysates are then resolved by SDS-PAGE. After electrophoresis, the proteins from SDS-PAGE are transferred to nitrocellulose membrane which is then blocked with 5% non-fat dried milk for 60 minutes. The membrane is then incubated with LC3 primary antibodies (1:1000) in TBST overnight at 4° C. After that, the membrane is further incubated with HRP-conjugated secondary antibodies for 60 minutes. Finally, protein bands are visualized by using the ECL Western Blotting Detection Reagents (Invitrogen, Paisley, Scotland, UK).
(A western blot detects proteins with antibodies after separation by electrophoresis.)

Assay [5] relates to HepG2 (human liver cancer) cells. Nature of the assay: MTT cytotoxicity assay, HepG2. Particulars: 72 h, 3 days, read-out: Means of IC50. The format is cell-based. The procedure:
as §2

Another assay concerns the target T1, Ca2+ ATPase (SERCA1A) (Oryctolagus cuniculus, UniProt P04191).
T1 construct: (SERCA1A) is prepared from female rabbit hind leg muscle; from tissue; host or cells: female rabbit hind leg (skeletal) muscle, sarcoplasmic reticulum membranes
Put plainly: Measurement of SERCA activity (enzyme-coupled ATPase assay). In kind it is biochemical. The following applies: rabbit skeletal muscle SR membranes; FIG. 5B. Here is the method:
Purified Ca^2+ ATPase (SERCA1A) is prepared from female rabbit hind leg muscle^27. ATPase activity is determined using the enzyme-coupled method utilizing pyruvate kinase and lactate dehydrogenase as previously described in Michelangeli et al. (1990). All SERCA inhibition data are fitted to the allosteric dose versus effect equation using Fig P (Biosoft):
Activity=minimum activity+(maximum activity−minimum activity)/(1+([I]/IC50)P).

In a further assay the test system is Bax-Bak wild-type MEFs. Put plainly: Annexin V/PI flow cytometry cell death, Bax-Bak wild-type MEFs. In kind it is cell-based, mouse. Particulars: 5 μM, 24 h. Here is the method:
Cell death is measured using an annexin V staining kit (BD Biosciences, San Jose, Calif., USA). Briefly, Bax-Bak wild-type and Bax-Bak DKO MEFs are treated with the 5 μM pomiferin for 24 h. Cells are then harvested and analysed by multiparametric flow cytometry using FITC-Annexin V and Propidium iodide staining (BD Biosciences, San Jose, Calif., USA) according to the manufacturer's instructions. Flow cytometry is then carried out using a FACSCalibur flow cytometer (BD Biosciences, San Jose, Calif., USA). Data acquisition and analysis is performed with CellQuest (BD Biosciences, San Jose, Calif., USA). Data are obtained from three independent experiments.
A general note: A flow cytometer gives signals particle by particle.

T1 sequence (P04191 1-994 isoform P04191-2): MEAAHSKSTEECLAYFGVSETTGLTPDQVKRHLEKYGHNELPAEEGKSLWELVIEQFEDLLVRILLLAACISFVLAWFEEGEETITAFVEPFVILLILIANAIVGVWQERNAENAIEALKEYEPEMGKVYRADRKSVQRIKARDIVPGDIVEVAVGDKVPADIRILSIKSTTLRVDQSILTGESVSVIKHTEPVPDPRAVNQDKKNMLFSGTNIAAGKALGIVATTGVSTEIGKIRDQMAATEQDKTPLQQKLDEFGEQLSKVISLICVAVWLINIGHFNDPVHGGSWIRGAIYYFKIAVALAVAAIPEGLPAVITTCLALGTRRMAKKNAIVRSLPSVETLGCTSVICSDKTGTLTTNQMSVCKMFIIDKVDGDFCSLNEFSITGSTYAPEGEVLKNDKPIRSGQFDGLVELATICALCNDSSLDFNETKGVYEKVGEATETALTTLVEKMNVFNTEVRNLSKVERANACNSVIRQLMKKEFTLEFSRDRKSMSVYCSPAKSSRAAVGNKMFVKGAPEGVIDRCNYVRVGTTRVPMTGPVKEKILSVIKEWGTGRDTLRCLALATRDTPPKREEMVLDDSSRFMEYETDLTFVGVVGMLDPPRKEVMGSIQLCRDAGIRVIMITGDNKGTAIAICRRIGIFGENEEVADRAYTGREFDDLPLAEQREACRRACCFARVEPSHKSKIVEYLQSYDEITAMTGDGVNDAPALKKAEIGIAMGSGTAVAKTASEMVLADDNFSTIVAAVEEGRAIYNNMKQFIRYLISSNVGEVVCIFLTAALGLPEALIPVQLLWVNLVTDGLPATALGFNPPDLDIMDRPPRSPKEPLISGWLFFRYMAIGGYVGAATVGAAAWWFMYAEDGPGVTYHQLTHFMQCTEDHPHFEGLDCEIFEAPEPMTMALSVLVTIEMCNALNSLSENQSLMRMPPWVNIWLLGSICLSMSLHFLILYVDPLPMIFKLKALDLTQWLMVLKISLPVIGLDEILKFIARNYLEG

For `CC(C)=CCc1c2c(c3occ(-c4ccc(O)c(O)c4)c(=O)c3c1O)C=CC(C)(C)O2` [pomiferin], the IC50 is 6.12 µM in assay [1]; 6.51 µM in assay [2]; 3.82 to 20.3 µM in assay [3]; 2130 nM in assay [4]; 13.6 µM in assay [5]. In addition, in the assay with HeLa cancer cells, the “autophagic marker LC3-II conversion” value is “induced”. Moreover, the SERCA1A pump inhibition entry at Ca2+ ATPase (SERCA1A) is on record as “inhibited by pomiferin in a dose-dependent manner”. For the same compound, the cell death in the assay with Bax-Bak wild-type MEFs is roughly 40%.
